# Data published in US7485651B2, “Compounds with activity on muscarinic receptors” (Acadia Pharmaceuticals, Inc., priority 1998, dated 2009).
# Columns and labels:
# m5 receptor = molecular target: T1, m5 receptor (Homo sapiens, UniProt P08912); test: R-SAT / NIH 3T3 cells transfected with m5 muscarinic receptor; format: cell-based; settings: NIH3T3; m5; compound at 1.5 μM; maximum = response to 10 μM carbachol; read-out: Cellular response as a percentage of the maximum response of the cells
# T1 construct: expressed in transfected cells; host or cells: NIH 3T3 (ATCC CRL 1658)
# T1 sequence (P08912 1-532): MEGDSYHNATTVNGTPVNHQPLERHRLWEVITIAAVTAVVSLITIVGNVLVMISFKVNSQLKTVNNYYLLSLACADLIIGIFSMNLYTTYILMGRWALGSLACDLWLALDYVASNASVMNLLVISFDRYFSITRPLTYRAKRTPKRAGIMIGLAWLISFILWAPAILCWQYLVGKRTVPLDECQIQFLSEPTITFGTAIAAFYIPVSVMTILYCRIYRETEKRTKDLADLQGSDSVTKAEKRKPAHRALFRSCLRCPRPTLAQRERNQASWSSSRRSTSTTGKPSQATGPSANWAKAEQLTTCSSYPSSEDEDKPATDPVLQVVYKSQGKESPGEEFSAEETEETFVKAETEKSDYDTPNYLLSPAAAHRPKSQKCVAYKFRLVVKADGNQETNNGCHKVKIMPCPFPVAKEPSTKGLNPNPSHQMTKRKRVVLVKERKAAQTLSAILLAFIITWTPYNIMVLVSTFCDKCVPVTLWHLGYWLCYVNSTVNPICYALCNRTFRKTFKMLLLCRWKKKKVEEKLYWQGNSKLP
# From the text: (§1) A particularly convenient functional assay system is the receptor selection and amplification assay disclosed in U.S. Pat. No. 5,707,798 describing a method of screening for bioactive compounds by utilizing the ability of cells transfected with receptor DNA, e.g. coding for the different muscarinic subtypes, to amplify in the presence of a ligand of the receptor. Cell amplification is detected as increased levels of a marker also expressed by the cells.
# (§2) Transfection of cells with muscarinic receptor DNAs (general procedure) NIH 3T3 cells (available from the American Type Culture Collection as ATCC CRL 1658) were grown at 37° C. in a humidified atmosphere (5% CO2) incubator in Dulbecco's modified Eagle's medium (DMEM) supplemented with 4.5 g/l glucose, 4 mM glutamine, 50 units/m1 penicillin, 50 units/m1 streptomycin (available from Advanced Biotechnologies, Inc., Gaithersburg, Md.) and 10% calf serum (available from Sigma, St. Louis, […].). The cells were treated with trypsin-EDTA, spun down and plated at 2×10^6 per 15 cm dish in 20 m1 of DMEM containing 10% calf serum.
# (§3) The m1-m5 muscarinic receptor subtypes were cloned substantially as described by Bonner et al., Science 237, 1987, p. 527, and Bonner et al., Neuron 1, 1988, p. 403. For the m2 and m4 receptors, the cells were co-transfected with DNA encoding a chimera between the Gq protein and the five carboxy-terminal amino acids of the Gi protein (the Gq-i5 construct is described by Conklin et al., Nature 363, 1993, p.274).
# (§4) On day one, the cells were transfected using the Superfect transfection reagent (available from Qiagen, Valencia, Calif.) in accordance with the manufacturer's instructions. Receptor DNA, β-gal DNA (pSI-β-galactosidase available from Promega, Madison, Wis.), chimeric Gq-i5 DNA for the m2 and m4 receptor subtype assays, and salmon sperm DNA (available from Sigma, St. Louis, […].) as filler to a total of 20 μg DNA was added per plate. Prior to addition to the plates, 60 μl Superfect was added to the DNA and mixed thoroughly by pipetting up and down several times. The mixture was incubated at room temperature for 10-15 minutes. The media were aspirated, and 12 ml fresh DMEM containing 10% calf serum and 50 units/m1 penicillin/streptomycin was added to the plates. The DNA-Superfect solution was mixed once more with a pipette and added to the plate which was swirled to distribute the DNA mixture evenly over the surface. The cells were incubated overnight at 37° C. and 5% CO2. After incubation, the media were aspirated and the plates were rinsed once with a 15 m1 volume of Hank's Buffered Saline. The plates were swirled to ensure thorough rinsing. 20 m1 fresh DMEM supplemented with 10% calf serum and 50 units/m1 penicillin/streptomycin was added to the plates. The cells were incubated for 24-48 hours until the plates were 100% confluent.
# (§5) Assay of NIH 3T3 cells transfected with muscarinic receptor subtypes (general procedure) DMEM containing 2% Cyto-SF3 was heated at 37° C. in a water bath under sterile conditions. Sterile working stock solutions of test compounds to be assayed were prepared by diluting the compounds in DMEM to 8× the final concentration for testing. The compound (carbachol) to be included in the assay as a positive control was also diluted in DMEM to 8× the final concentration. 50 μL of the DMEM containing 2% Cyto-SF3 was added to each well of 96-well microtiter plates under sterile conditions. Then, 16 of compound solutions were added to the top wells of the plates, and dilution of the solutions was performed by taking 16 μl of the compound solutions from the top wells and pipetting them into the next row of wells. This procedure was repeated with each subsequent row of wells, except that 50 μl medium alone was added to the baseline control wells (the wells that contain medium and cells, but not test compounds) and plate control wells (wells containing medium, but not test compounds and cells). […]
# m3 receptor = molecular target: T2, m3 receptor (Homo sapiens, UniProt P20309); test: R-SAT / NIH 3T3 cells transfected with m3 muscarinic receptor; format: cell-based; settings: NIH3T3; m3; compound at 1.5 μM; maximum = response to 10 μM carbachol; read-out: Cellular response as a percentage of the maximum response of the cells
# T2 construct: expressed in transfected cells; host or cells: NIH 3T3 (ATCC CRL 1658)
# From the text: as §1, §2, §3, §4, §5
# m1 receptor = molecular target: T3, m1 receptor (Homo sapiens, UniProt P11229); test: R-SAT / NIH 3T3 cells transfected with m1 muscarinic receptor; format: cell-based; settings: NIH3T3; m1; compound at 1.5 μM; maximum = response to 10 μM carbachol; read-out: Cellular response as a percentage of the maximum response of the cells
# T3 construct: expressed in transfected cells; host or cells: NIH 3T3 (ATCC CRL 1658)
# T3 sequence (P11229 1-460): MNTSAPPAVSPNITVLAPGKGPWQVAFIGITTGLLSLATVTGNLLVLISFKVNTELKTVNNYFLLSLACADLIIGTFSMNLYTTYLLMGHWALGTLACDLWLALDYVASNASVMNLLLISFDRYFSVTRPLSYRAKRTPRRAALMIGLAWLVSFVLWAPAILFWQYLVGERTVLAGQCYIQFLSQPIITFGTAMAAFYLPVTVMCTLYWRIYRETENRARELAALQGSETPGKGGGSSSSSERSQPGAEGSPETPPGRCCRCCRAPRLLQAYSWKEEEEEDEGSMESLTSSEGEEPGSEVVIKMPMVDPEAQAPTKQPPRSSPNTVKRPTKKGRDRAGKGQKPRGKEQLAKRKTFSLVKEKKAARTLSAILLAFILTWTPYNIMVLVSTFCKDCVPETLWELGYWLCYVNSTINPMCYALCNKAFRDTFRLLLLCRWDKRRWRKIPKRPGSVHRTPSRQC
# Protocol: Cell amplification is detected as increased levels of a marker also expressed by the cells.
# The cells were treated with trypsin-EDTA, spun down and plated at 2×10^6 per 15 cm dish in 20 m1 of DMEM containing 10% calf serum.
# as §4
# Assay of NIH 3T3 cells transfected with muscarinic receptor subtypes (general procedure) DMEM containing 2% Cyto-SF3 was heated at 37° C. in a water bath under sterile conditions. Sterile working stock solutions of test compounds to be assayed were prepared by diluting the compounds in DMEM to 8× the final concentration for testing. The compound (carbachol) to be included in the assay as a positive control was also diluted in DMEM to 8× the final concentration. 50 μL of the DMEM containing 2% Cyto-SF3 was added to each well of 96-well microtiter plates under sterile conditions. Then, 16 of compound solutions were added to the top wells of the plates, and dilution of the solutions was performed by taking 16 μl of the compound solutions from the top wells and pipetting them into the next row of wells. This procedure was repeated with each subsequent row of wells, except that 50 μl medium alone was added to the baseline control wells (the wells that contain medium and cells, but not test compounds) and plate control wells (wells containing medium, but not test compounds and cells). The plates were then placed in an incubator at 37° C. to equilibrate temperature and pH.
# When the cell cultures had reached 100% confluence, the medium was aspirated and each plate was rinsed with 15 m1 Hank's Buffered Saline (HBS). The cells were left in the incubator for about 10-15 minutes until the HBS had turned slightly yellow. The HBS was then aspirated and 1 m1 trypsin was added to each plate and swirled so as to completely cover the plates. The edges of the plates were gently rapped several times to loosen the cells. After the cells had been dislodged from the surface, 8 m1 DMEM containing 10% calf serum and 50 units/m1 penicillin and 50 units/m1 streptomycin was added to inhibit the trypsin. The plates were rinsed with this medium, and the cells were pipetted into a tube. The cells were centrifuged at 1000 rpm for 5-10 min. in an IEC Centra CL2 centrifuge (produced by Sorvall). Afterwards, the medium was carefully aspirated so as not to dislodge the cells. The cell pellet was suspended in 1600 μl DMEM containing 10% calf serum and 50 units/m1 penicillin and 50 units/m1 streptomycin, after which 20 m1 DMEM supplemented with 2% Cyto-SF3 was added. 50 μl aliquots of this cell suspension was added to the wells of the 96-well microtiter plates prepared above (except for the plate control wells).
# [1] = human, in vivo; cited from earlier work
# T2 sequence (P20309 whole entry): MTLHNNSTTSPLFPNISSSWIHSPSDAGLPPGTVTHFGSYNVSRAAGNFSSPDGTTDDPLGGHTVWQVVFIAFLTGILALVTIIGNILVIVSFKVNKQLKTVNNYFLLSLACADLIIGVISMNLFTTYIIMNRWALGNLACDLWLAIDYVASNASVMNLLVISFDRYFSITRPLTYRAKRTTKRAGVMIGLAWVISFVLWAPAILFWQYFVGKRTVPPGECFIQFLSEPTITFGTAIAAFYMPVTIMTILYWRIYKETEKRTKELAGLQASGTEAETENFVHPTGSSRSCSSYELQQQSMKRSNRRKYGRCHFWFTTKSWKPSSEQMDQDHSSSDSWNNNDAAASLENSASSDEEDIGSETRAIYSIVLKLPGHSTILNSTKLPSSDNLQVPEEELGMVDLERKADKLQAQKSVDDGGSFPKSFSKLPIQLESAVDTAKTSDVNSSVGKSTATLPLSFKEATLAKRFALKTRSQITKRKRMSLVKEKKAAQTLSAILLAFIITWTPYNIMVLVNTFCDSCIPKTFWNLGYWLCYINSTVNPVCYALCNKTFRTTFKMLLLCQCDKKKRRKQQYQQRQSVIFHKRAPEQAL
Compound,Emax at 1.5 µM (m5 receptor) [%],Emax at 1.5 µM (m3 receptor) [%],Emax at 1.5 µM (m1 receptor) [%],patients with elevated liver transaminases (hepatotoxicity) [1],patients with gastrointestinal side effects [1]
"CCCCC1CCN(CCCC(=O)c2ccccc2OCC)CC1 [B, 4-n-Butyl-1-[4-(2ethoxyphenyl)-4-oxo-1-butyl]piperidine]",-6,7,76,,
"CCCCC1CCN(CCCC(=O)c2ccccc2O)CC1 [C, 4-n-Butyl-1-[4-(2-hydroxyphenyl)-4-oxo-1-butyl]piperidine]",0,4,91,,
"CCCCC1CCN(CCCC(=O)c2cccc(C)c2C)CC1 [D, 4-n-Butyl-1-[4-(2,3-dimethylphenyl)-4-oxo-1-butyl]piperidine]",2,13,72,,
"CCCCC1CCN(CCCC(=O)c2ccc(C)cc2C)CC1 [E, 4-n-Butyl-1-[4-(2,4-dimethylphenyl)-4-oxo-1-butyl]piperidine]",-3,9,42,,
"CCCCC1CCN(CCCC(=O)c2ccccc2OC)CC1 [F, 4-n-Butyl-1-[4-(2-methoxyphenyl)-4-oxo1-butyl]piperidine]",5,9,65,,
"CCCCC1CCN(CCCC(=O)c2ccccc2)CC1 [G, 4-n-Butyl-1-[4-phenyl-4-oxo-1-butyl]piperidine]",7,16,66,,
"Nc1c2c(nc3ccccc13)CCCC2 [Tacrine, 9-amino-1,2,3,4-tetrahydroacridine]",,,,about 30%,about a third
